# Experimental data: patent US20240123079A1 (Seagen Inc., priority 2021, published 2024)
# “And” between values parts separate entries of the source, which are not always exact repeats. Equal values may be shown once.
# Key:
# human cancer cell lines = test: Cancer cell direct cytotoxicity assay, panel statement; assay type: cell-based; details: panel of human cancer cell lines
# Protocol: (§1) Bystander activity of ADCs was evaluated using Renca cancer cells and THP1-Dual™ cells (InvivoGen) which contain an IRF-Lucia luciferase reporter. Cells were cultured in RPMI-1640 (Gibco) with 10% heat-inactivated fetal bovine serum, Pen-Strep (100 U/ml-100 μg/ml, Gibco), HEPES (10 mM, Gibco), sodium pyruvate (1 mM, Gibco), MEM non-essential amino acids (1×, Gibco), GlutaMAX (1×, Gibco), and beta-mercaptoethanol (55 μM, Gibco). Renca cells were plated in a 96-well flat bottom tissue culture-treated clear polystyrene plate (Corning Costar #3596) at 50,000 cells per well in 100 μL. On the day following the initial plating, 50,000 THP1-Dual™ cells were added to each well with the indicated concentration of ADC in a total volume of 200 μL. Supernatant was harvested at 48 hours post addition of the THP1-Dual™ cells. To measure Lucia reporter signal, 10 μL of supernatant was combined with 40 μL of QUANTI-Luc™ Luminescence assay reagent (Invivogen PN: rep-qlc1) in a 96-well clear flat bottom tissue culture-treated black polystyrene plate (Corning Costar PN: 3603) and read on a Perkin Elmer Envision plate reader. In some experiments, HEK 293T cells engineered to express a murine protein typically expressed by immune cells (target antigen C— an immune cell antigen) were plated as above instead of Renca tumor cells. Cancer Cell Direct Cytotoxicity Assay
# Cancer cells were counted and plated in 40 μL complete growth media in 384-well, white-walled tissue culture treated plates (Corning). Cell plates were incubated at 37° C. and with 5% CO2 overnight to allow the cells to equilibrate. […] The luminescence of the samples was measured using an EnVision Multimode plate reader (Perkin Elmer, Waltham, MA). […]
# Compound 12a was conjugated to both targeted and non-binding antibodies using a variety of non-cleavable linkers (12, 17, 19-24) and the resulting ADCs were assessed for their ability to activate THP1-Dual™ reporter cells. […] We also evaluated the ability of these linkers to directly kill cancer cells when conjugated to targeted mAbs binding tumor antigen A or antigen B (CD30).
# Ls174T = test: Cancer cell direct cytotoxicity assay (CellTiter-Glo), Ls174T; assay type: cell-based; details: Homo sapiens, 96 h, free compound, read-out: Compound X50
# Protocol: as §1
# (§2) Cancer cells were counted and plated in 40 μL complete growth media in 384-well, white-walled tissue culture treated plates (Corning). Cell plates were incubated at 37° C. and with 5% CO2 overnight to allow the cells to equilibrate. Stock solutions containing ADCs or free drugs were serially diluted in RPMI-1640+20% fetal bovine serum (FBS). 10 μL of each concentration were then added to each cell plate in duplicate. Cells were then incubated at 37° C. and with 5% CO2 for 96 hours, upon which, the cell plates were removed from the incubator and allowed to cool to room temperature for 30 minutes prior to analysis. […] The luminescence of the samples was measured using an EnVision Multimode plate reader (Perkin Elmer, Waltham, MA). […]
# SU-DHL-4 = test: Cancer cell direct cytotoxicity assay (CellTiter-Glo), SU-DHL-4; assay type: cell-based; details: Homo sapiens; SU-DHL-4, 96 h, free compound; read-out: Compound X50
# Protocol: as §1, §2
# [1] = In vivo cytokine assay, plasma of CT26 tumor-bearing mice; parameters: species or system mouse; details: 1.86 mg/kg
# Protocol: Cytokines were measured in mouse plasma harvested at 3, 6, 24, or 48 hours after treatment with compounds or ADCs using a Milliplex MAP mouse cytokine/chemokine magnetic bead panel assay kit (MCYTOMAG-70k custom 11-plex kit: MCP1, MIP1α, MIP1β, TNFα, IFNγ, IL-10, IL-12p70, IL-6, IL-1β, IP10, RANTES) and analyzed using a Luminex™ MAGPIX™ Instrument System. Values that were outside of the standard curve range (<3.2 or […]) were excluded from calculation of the mean values.
# 786-O = test: Cancer cell direct cytotoxicity assay (CellTiter-Glo), 786-O; assay type: cell-based; details: Homo sapiens, 786-0, 96 h, free compound, read-out: Compound X50
# Protocol: as §1, §2
# [2] = tested on: THP1-Dual™ reporter cells; test: THP1-Dual cell reporter assay (IRF-Lucia luciferase reporter); assay type: cell-based, human; details: for EC50: Homo sapiens, THP1-Dual, free compounds, 24 h, Lucia reporter signal, read-out: EC50; for potency relative to other free compound: free drug
# Outline: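 THP1-Dual monocytic cells (~100,000/well) were exposed to compound for 24 h (ADCs 48 h). Secreted IRF-driven Lucia luciferase in the supernatant was quantified by QUANTI-Luc luminescence.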
# L540cy = test: Cancer cell direct cytotoxicity assay (CellTiter-Glo), L540cy; assay type: cell-based; details: Homo sapiens, 96 h, free compound, read-out: Compound X50
# Protocol: as §1, §2
# A2058 = test: Cancer cell direct cytotoxicity assay (CellTiter-Glo), A2058; assay type: cell-based; details: Homo sapiens; A2058, 96 h, free compound; read-out: Compound X50
# Protocol: as §1, §2
smiles,measurement,setting,value
"CCn1nc(C)cc1C(=O)Nc1nc2cc(C(N)=O)cc(O)c2n1C/C=C/Cn1c(NC(=O)c2cc(C)nn2CC)nc2cc(C(N)=O)cc(OC)c21 [Compound 1, (E)-1-(4-(5-carbamoyl-2-(1-ethyl-3-methyl-1H-pyrazole-5-carboxamido)-7-hydroxy-1H-benzo[d]imidazol-1-yl)but-2-en-1-yl)-2-(1-ethyl-3-methyl-1H-pyrazole-5-carboxamido)-7-methoxy-1H-benzo[d]imidazole-5-carboxamide]",direct cytotoxic activity on cancer cell lines,human cancer cell lines,demonstrated direct cytotoxic activity on a subset of cancer cell lines
same,IC50,Ls174T,> 1 µM
same,IC50,SU-DHL-4,> 1 µM
same,IL-6 in peripheral blood (plasma),[1]; 3 h,622.1 and 781.4 and 1128.3
same,IP-10 in peripheral blood (plasma),[1]; 3 h,1439.4 and 1501.7 and 1160.7
same,MCP-1 in peripheral blood (plasma),[1]; 3 h,73.7 and 78.6 and 110.3
same,MIP1b in peripheral blood (plasma),[1]; 3 h,297.7 and 336.8 and 224
same,MIP-1a in peripheral blood (plasma),[1]; 3 h,3.9 and 3.2
same,TNFa in peripheral blood (plasma),[1]; 3 h,3.2 and 4.9 and 4.3
same,IL-6 in peripheral blood (plasma),[1]; 6 h,2652.5 and 2393.5 and 2412.7
same,IP-10 in peripheral blood (plasma),[1]; 6 h,2610.8 and 2133.6 and 2473.4
same,MCP-1 in peripheral blood (plasma),[1]; 6 h,3185.3 and 2816.3 and 1634.8
same,MIP-1a in peripheral blood (plasma),[1]; 6 h,94.6 and 93.6 and 73.9
same,TNFa in peripheral blood (plasma),[1]; 6 h,16.9 and 16.6 and 10
same,IL-6 in peripheral blood (plasma),[1]; 24 h,44.5 and 31.8 and 36.5
same,IL-10 in peripheral blood (plasma),[1]; 24 h,3.2
same,IP-10 in peripheral blood (plasma),[1]; 24 h,1121.6 and 1025.3 and 696.2
same,MCP-1 in peripheral blood (plasma),[1]; 24 h,397.7 and 294.7 and 305.9
same,IL-10 in peripheral blood (plasma),[1]; 48 h,3.2
same,IP-10 in peripheral blood (plasma),[1]; 48 h,560.1 and 398.8 and 560
same,IC50,786-O,> 1 µM
same,EC50,[2],0.005 µM
same,potency relative to other free compound,[2],significantly more potent
same,IC50,L540cy,0.031 µM
same,IC50,A2058,> 1 µM
CCn1nc(C)cc1C(=O)Nc1nc2cc(C(N)=O)cc(OC)c2n1C/C=C/Cn1c(NC(=O)c2cc(C)nn2CC)nc2cc(C(N)=O)cc(OCCCNC)c21 [Compound 12a],direct cytotoxic activity on cancer cell lines,human cancer cell lines,demonstrated direct cytotoxic activity on a subset of cancer cell lines
same,IC50,Ls174T,> 1 µM
same,IC50,SU-DHL-4,> 1 µM
same,IC50,786-O,> 1 µM
same,EC50,[2],0.021 µM
same,potency relative to other free compound,[2],less potent than compound 1 and compound A
same,IC50,L540cy,0.083 µM
same,IC50,A2058,> 1 µM
